Drawing on patent US20240174675A1, “SMALL MOLECULE REGULATORS OF ALVEOLAR TYPE 2 CELL PROLIFERATION FOR THE TREATMENT OF PULMONARY DISEASES” (THE SCRIPPS RESEARCH INSTITUTE, priority 2021, published 2024), this text covers IC50 for 20 compounds.

In this assay the target is T1, Human DPP4 (Homo sapiens, UniProt P27487).
T1 construct: purchased Sigma-Aldrich MAK088
Description: DPP4 activity assay (DPP4 Activity Assay Kit, fluorescent substrate). The assay is classed as biochemical. Conditions: Human DPP4; read-out: DPP4 inhibition IC50 [nM]). The protocol: DPP4 activity assay. Human DPP4 activity assay data were obtained using a DPP4 Activity Assay Kit (Sigma-Aldrich, MAK088) according to the manufacturer's instructions. Briefly, 10 μL of DPP4 Assay Buffer were transferred per well in low volume 384-well plates before transferring 10 μL of test compound dissolved in DPP4 assay buffer. To each well was added 5 μL of Master Reaction Mix containing a fluorescent substrate that becomes fluorescent upon cleavage by the enzyme. Fluorescence intensity measurements were recorded at 1-minute time intervals over the course of 20 minutes using an Envision Multimode Plate Reader (PerkinElmer).

SMILES strings stand for the structures. Counter-ions that a name gives are not always drawn.

T1 sequence (P27487 whole entry): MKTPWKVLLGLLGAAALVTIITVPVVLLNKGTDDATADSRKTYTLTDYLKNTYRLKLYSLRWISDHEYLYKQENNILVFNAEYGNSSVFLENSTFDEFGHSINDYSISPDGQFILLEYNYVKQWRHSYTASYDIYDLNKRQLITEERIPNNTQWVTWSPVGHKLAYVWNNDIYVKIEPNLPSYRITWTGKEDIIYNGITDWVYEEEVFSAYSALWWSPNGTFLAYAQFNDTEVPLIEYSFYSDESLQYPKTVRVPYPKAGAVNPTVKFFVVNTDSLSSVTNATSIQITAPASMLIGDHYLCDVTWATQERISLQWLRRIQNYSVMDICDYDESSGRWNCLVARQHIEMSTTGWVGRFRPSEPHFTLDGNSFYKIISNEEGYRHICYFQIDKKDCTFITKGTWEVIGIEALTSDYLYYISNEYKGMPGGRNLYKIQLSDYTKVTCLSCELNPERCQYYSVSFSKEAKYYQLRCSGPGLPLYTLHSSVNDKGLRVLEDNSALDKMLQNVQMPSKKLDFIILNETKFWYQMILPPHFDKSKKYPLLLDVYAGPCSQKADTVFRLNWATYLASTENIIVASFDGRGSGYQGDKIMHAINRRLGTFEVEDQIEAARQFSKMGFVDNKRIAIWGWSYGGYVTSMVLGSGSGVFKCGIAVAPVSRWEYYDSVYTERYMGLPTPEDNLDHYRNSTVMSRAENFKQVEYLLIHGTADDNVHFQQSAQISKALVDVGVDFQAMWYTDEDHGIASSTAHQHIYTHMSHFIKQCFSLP

One may read the IC50 as the point on the concentration scale where inhibition reaches its midpoint. Take `N#C[C@@H]1CCCN1C(=O)CN[C@@]12CC3C[C@@H](C1)C[C@](OCCOCCN(C[C@H](O)[C@@H](O)[C@H](O)[C@H](O)CO)C[C@H](O)[C@@H](O)[C@H](O)[C@H](O)CO)(C3)C2` [Compound 10, (2S)-1-(((1S,3R,5S)-3-(2-(2-(bis((2S,3R,4R,5R)-2,3,4,5,6-pentahydroxyhexyl)amino)ethoxy)ethoxy)adamantan-1-yl)glycyl)pyrrolidine-2-carbonitrile]: the IC50 came to 20.8 nM.
Regarding `CCCCCCN(Cc1cn(CCOCCOC23CC4CC(CC(NCC(=O)N5CCC[C@H]5C#N)(C4)C2)C3)nn1)C[C@H](O)[C@@H](O)[C@H](O)[C@H](O)CO` [Compound 15], the IC50 was determined as 17.4 nM.
With `N[C@@H](CC(=O)N1CCn2c(C(F)(F)F)nc(C(=O)OCCOCCOCCn3cc(CNC[C@H](O)[C@@H](O)[C@H](O)[C@H](O)CO)nn3)c2C1)Cc1cc(F)c(F)cc1F` [Compound 44, 2-(2-(2-(4-((((2S,3R,4R,5R)-2,3,4,5,6-pentahydroxyhexyl)amino)methyl)-1H-1,2,3-triazol-1-yl)ethoxy)ethoxy)ethyl 7-((R)-3-amino-4-(2,4,5-trifluorophenyl)butanoyl)-3-(trifluoromethyl)-5,6,7,8-tetrahydroimidazo[1,5-a]pyrazine-1-carboxylate], the IC50 worked out at 0.11 nM.
With `CC#CCn1c(N2CCC[C@@H](N)C2)nc2c1c(=O)n(Cc1ccc(Cl)cc1Br)c(=O)n2C` [Compound 36], the IC50 stood at 27 nM.
Then `CC#CCn1c(N2CCC[C@@H](N)C2)nc2c1c(=O)n(Cc1nc(F)ccc1C(=O)OCCCCCC)c(=O)n2C` [Compound 30, hexyl (R)-2-((8-(3-aminopiperidin-1-yl)-7-(but-2-yn-1-yl)-3-methyl-2,6-dioxo-2,3,6,7-tetrahydro-1H-purin-1-yl)methyl)-6-fluoronicotinate], with more than 1000 nM; and `CCCCCCN(CCc1ccc(OCCNC(=O)OCCSC23CC4C[C@@H](CC(NCC(=O)N5CCC[C@H]5C#N)(C4)C2)C3)cc1)C[C@H](O)[C@@H](O)[C@H](O)[C@H](O)CO` (stereo in doubt) [Compound 4, 2-(((1R,3S,5S)-3-((2-((S)-2-cyanopyrrolidin-1-yl)-2-oxoethyl)amino)adamantan-1-yl)thio)ethyl (2-(4-(2-(hexyl((2S,3R,4R,5R)-2,3,4,5,6-pentahydroxyhexyl)amino)ethyl)phenoxy)ethyl)carbamate], with 11 nM.
As to `N[C@@H](CC(=O)N1CCn2c(C(F)(F)F)nc(C(=O)OCCCCCN3CCOCC3)c2C1)Cc1cc(F)c(F)cc1F` [Compound 53, (R)-4-(1-(((5-morpholinopentyl)oxy)carbonyl)-3-(trifluoromethyl)-5,6-dihydroimidazo[1,5-a]pyrazin-7(8H)-yl)-4-oxo-1-(2,4,5-trifluorophenyl)butan-2-aminium (2R,3R)-3-carboxy-2,3-dihydroxypropanoate], the IC50 amounted to 1 nM.
In the case of `N#C[C@@H]1C[C@@H]2C[C@@H]2N1C(=O)[C@@H](N)[C@]12CC3CC(C[C@](OCCOC(=O)NCc4ccc(CN(C[C@@H](O)[C@H](O)[C@@H](O)[C@@H](O)CO)C[C@@H](O)[C@H](O)[C@@H](O)[C@@H](O)CO)cc4)(C3)C1)C2` (stereo in doubt) [Compound 22, 2-(((1R,3S,5S)-3-((S)-1-amino-2-((1S,3S,5S)-3-cyano-2-azabicyclo[3.1.0]hexan-2-yl)-2-oxoethyl)adamantan-1-yl)oxy)ethyl (4-((bis((2S,3R,4R,5R)-2,3,4,5,6-pentahydroxyhexyl)amino)methyl)benzyl)carbamate trifluoracetate salt] it was 6.6 nM; in that of `N#C[C@@H]1C[C@@H]2C[C@@H]2N1C(=O)[C@@H](N)C12CC3C[C@H](CC(OCCOC(=O)CNc4ccc(CN(CCO)CCO)cc4)(C3)C1)C2` [Compound 18], 12 nM; in that of `CC#CCn1c(N2CCC[C@@H](N)C2)nc2c1c(=O)n(Cc1nc(F)ccc1C(=O)O)c(=O)n2C` [Compound 29], 7.1 nM.
In the case of `N[C@@H](CC(=O)N1CCn2c(C(F)(F)F)nc(C(=O)OCCOCCOCCn3cc(CN(C[C@H](O)[C@@H](O)[C@H](O)[C@H](O)CO)C[C@H](O)[C@@H](O)[C@H](O)[C@H](O)CO)nn3)c2C1)Cc1cc(F)c(F)cc1F` [Compound 48, 2-(2-(2-(4-((bis((2S,3R,4R,5R)-2,3,4,5,6-pentahydroxyhexyl)amino)methyl)-1H-1,2,3-triazol-1-yl)ethoxy)ethoxy)ethyl 7-((R)-3-amino-4-(2,4,5-trifluorophenyl)butanoyl)-3-(trifluoromethyl)-5,6,7,8-tetrahydroimidazo[1,5-a]pyrazine-1-carboxylate] it was 0.55 nM.
For the compound `CC#CCn1c(N2CCC[C@@H](N)C2)nc2c1c(=O)n(Cc1ccc(C(=O)O)cc1)c(=O)n2C` [Compound 28], the IC50 stood at 10.5 nM.
Then `CCCCCCN(Cc1cn(CCOCCOCCOC23CC4CC(CC(NCC(=O)N5CCC[C@H]5C#N)(C4)C2)C3)nn1)C[C@H](O)[C@@H](O)[C@H](O)[C@H](O)CO` [Compound 8, (2S)-1-(((1S,3R,5S)-3-(2-(2-(2-(4-((hexyl((2S,3R,4R,5R)-2,3,4,5,6-pentahydroxyhexyl)amino)methyl)-1H-1,2,3-triazol-1-yl)ethoxy)ethoxy)ethoxy)adamantan-1-yl)glycyl)pyrrolidine-2-carbonitrile], with 14.2 nM; and `CCCCCCN(Cc1cn(CCOCCOC23CC4C[C@H](C2)CC([C@H](N)C(=O)N2[C@H](C#N)C[C@@H]5C[C@@H]52)(C4)C3)nn1)C[C@H](O)[C@@H](O)[C@H](O)[C@H](O)CO` [Compound 20], with 47.8 nM; and `CC#CCn1c(N2CCC[C@@H](N)C2)nc2c1c(=O)n(Cc1nc(NC)ccc1C(=O)O)c(=O)n2C` [Compound 31], with 11.4 nM.
Then `N#C[C@@H]1C[C@@H]2C[C@@H]2N1C(=O)[C@@H](N)[C@]12CC3C[C@H](C[C@](OCCO)(C3)C1)C2` [Compound 16, (1S,3S,5S)-2-((2S)-2-amino-2-((1S,3R,5S)-3-(2-hydroxyethoxy)adamantan-1-yl)acetyl)-2-azabicyclo[3.1.0]hexane-3-carbonitrile], with 7.9 nM.
In the case of `CC#CCn1c(N2CCC[C@@H](N)C2)nc2c1c(=O)n(Cc1ccc(Cl)cc1C(=O)OC(C)C)c(=O)n2C` [Compound 37] it was 700 nM; in that of `N[C@@H](CC(=O)N1CCn2c(C(F)(F)F)nc(C(=O)OCCOCCN3CCOCC3)c2C1)Cc1cc(F)c(F)cc1F` [Compound 52, (R)-4-(1-((2-(2-morpholinoethoxy)ethoxy)carbonyl)-3-(trifluoromethyl)-5,6-dihydroimidazo[1,5-a]pyrazin-7(8H)-yl)-4-oxo-1-(2,4,5-trifluorophenyl)butan-2-aminium (2R,3R)-3-carboxy-2,3-dihydroxypropanoate], 0.54 nM.
For the compound `CCN(Cc1ccc(CNC(=O)OCCO[C@]23CC4C[C@H](C2)C[C@@]([C@H](N)C(=O)N2[C@H](C#N)C[C@@H]5C[C@@H]52)(C4)C3)cc1)C[C@H](O)[C@@H](O)[C@H](O)[C@H](O)CO` [Compound 23, 2-(((1R,3S,5S)-3-((S)-1-amino-2-((1S,3S,5S)-3-cyano-2-azabicyclo[3.1.0]hexan-2-yl)-2-oxoethyl)adamantan-1-yl)oxy)ethyl (4-((ethyl((2S,3R,4R,5R)-2,3,4,5,6-pentahydroxyhexyl)amino)methyl)benzyl)carbamate Formate], the IC50 was found to be 4.2 nM.
Then `[N-]=[N+]=NCCOCCOCCNC(=O)c1nc(C(F)(F)F)n2c1CN(C(=O)C[C@H](N)Cc1cc(F)c(F)cc1F)CC2` [Compound 43], with 1 nM.
